Measurements published in patent US20230002372A1, “AZAINDOLE CARBOXAMIDE COMPOUNDS FOR THE TREATMENT OF MYCOBACTERIAL INFECTIONS” (THE GLOBAL ALLIANCE FOR TB DRUG DEVELOPMENT, INC., priority 2019, published 2023).
Converted amounts (≈) assume the structure as drawn.

System: M tb H37Rv
Test: MIC determination against M tb H37Rv (green fluorescent protein reporter assay; MIC-MABA)
Assay type: cell-based, Mycobacterium tuberculosis
Settings: Mycobacterium tuberculosis, H37RV, 240 h, read-out: M. TB H37Rv: MIC-MABA: MIC, M. tb H37Rv; 7H9 broth; 10 days exposure; MIC = lowest concentration inhibiting fluorescence by 90%

SMILES	MIC
CC1(C)[C@H]2C[C@H](NC(=O)c3cc4c(C(F)(F)F)ccnc4[nH]3)[C@](C)(O)[C@@H]1C2 [MPL-216, N-[(1R,2R,3S,5R)-2-hydroxy-2,6,6-trimethyl-norpinan-3-yl]-4-(trifluoromethyl)-1H-pyrrolo[2,3-b]pyridine-2-carboxamide]	0.041 µg/mL (≈ 0.107 µM)
Cc1cc(Cl)c2cc(C(=O)N[C@H]3C[C@H]4C[C@H](C4(C)C)[C@@]3(C)O)[nH]c2n1 [MPL-218, 4-chloro-N-[(1R,2R,3S,5R)-2-hydroxy-2,6,6-trimethyl-norpinan-3-yl]-6-methyl-1H-pyrrolo[2,3-b]pyridine-2-carboxamide]	0.037 µg/mL (≈ 0.102 µM)
CC1(C)[C@H]2C[C@H](NC(=O)c3cc4c(F)c(F)cnc4[nH]3)[C@](C)(O)[C@@H]1C2 [MPL-219, 4,5-difluoro-N-[(1R,2R,3S,5R)-2-hydroxy-2,6,6-trimethyl-norpinan-3-yl]-1H-pyrrolo[2,3-b]pyridine-2-carboxamide]	0.9 µg/mL (≈ 2.58 µM)
CC1(C)[C@H]2C[C@H](NC(=O)c3cc4c(F)cncc4[nH]3)[C@](C)(O)[C@@H]1C2 [MPL-221, 4-fluoro-N-[(1R,2R,3S,5R)-2-hydroxy-2,6,6-trimethyl-norpinan-3-yl]-1H-pyrrolo[2,3-c]pyridine-2-carboxamide]	0.2 µg/mL (≈ 0.604 µM)
CC1(C)[C@H]2C[C@H](NC(=O)c3cc4c(Cl)cncc4[nH]3)[C@](C)(O)[C@@H]1C2 [MPL-222, 4-chloro-N-[(1R,2R, 3S, 5R)-2-hydroxy-2,6,6-trimethyl-norpinan-3-yl]-1H-Pyrrolo[2,3-c]pyridine-2-carboxamide]	0.19 µg/mL (≈ 0.546 µM)
Cc1c(C(=O)NC2CC[Si](C)(C)CC2)[nH]c2cncc(F)c12 [MPL-226, N-(1,1-dimethylsilinan-4-yl)-4-fluoro-3-methyl-1H-pyrrolo[2,3-c]pyridine-2-carboxamide]	0.75 µg/mL (≈ 2.35 µM)
Cc1nc(Cl)c(F)c2cc(C(=O)NC3CC[Si](C)(C)CC3)[nH]c12 [MPL-236, 5-chloro-N-(1,1-dimethylsilinan-4-yl)-4-fluoro-7-methyl-1H-pyrrolo[2,3-c]pyridine-2-carboxamide]	0.18 µg/mL (≈ 0.509 µM)
Cc1nc2[nH]c(C(=O)NC3CC[Si](C)(C)CC3)cc2c(C)c1F [MPL-237, N-(1,1-dimethylsilinan-4-yl)-5-fluoro-4,6-dimethyl-1H-pyrrolo[2,3-b]pyridine-2-carboxamide]	0.047 µg/mL (≈ 0.141 µM)
Cc1cc(F)c2cc(C(=O)NC3CC[Si]4(CCCC4)CC3)[nH]c2n1 [MPL-253, 4-fluoro-6-methyl-N-(5-silaspiro[4.5]decan-8-yl)-1H-pyrrolo[2,3-b]pyridine-2-carboxamide]	0.056 µg/mL (≈ 0.162 µM)
O=C(NC1CC[Si]2(CCCC2)CC1)c1cc2c(F)cncc2[nH]1 [MPL-254, 4-fluoro-N-(5-silaspiro[4.5]decan-8-yl)-1H-pyrrolo[2,3-c]pyridine-2-carboxamide]	0.2 µg/mL (≈ 0.603 µM)
O=C(NC1CC[Si]2(CCCCC2)CC1)c1cc2c(F)cncc2[nH]1 [MPL-259, 4-fluoro-N-(6-silaspiro[5.5]undecan-3-yl)-1H-pyrrolo[2,3-c]pyridine-2-carboxamide]	0.054 µg/mL (≈ 0.156 µM)
O=C(NC1CC[Si]2(CCCCC2)CC1)c1cc2c(Cl)cncc2[nH]1 [MPL-260, 4-chloro-N-(6-silaspiro[5.5]undecan-3-yl)-1H-pyrrolo[2,3-c]pyridine-2-carboxamide]	0.0075 µg/mL (≈ 0.0207 µM)
Cc1cc(Cl)c2cc(C(=O)NC3CCCC[Si](C)(C)CC3)[nH]c2n1 (stereo not shown) [MPL-275, 4-chloro-N-(1,1-dimethylsilocan-4-yl)-6-methyl-1H-pyrrolo[2,3-b]pyridine-2-carboxamide]	0.031 µg/mL (≈ 0.0852 µM)
Cc1cc(Cl)c2cc(C(=O)NC3CC[Si]4(CCCC4)CC3)[nH]c2n1 [MPL-276, 4-chloro-6-methyl-N-(5-silaspiro[4.5]decan-8-yl)-1H-pyrrolo[2,3-b]pyridine-2-carboxamide]	0.015 µg/mL (≈ 0.0414 µM)
Cc1cc(Cl)c2cc(C(=O)NC3CC[Si]4(CCCCC4)CC3)[nH]c2n1 [MPL-277, 4-chloro-6-methyl-N-(6-silaspiro[5.5]undecan-3-yl)-1H-pyrrolo[2,3-b]pyridine-2-carboxamide]	0.045 µg/mL (≈ 0.12 µM)
Cc1cc(F)c2c(C)c(C(=O)NC3CC[Si]4(CCCC4)CC3)[nH]c2n1 [MPL-280, 4-fluoro-3,6-dimethyl-N-(5-silaspiro[4.5]decan-8-yl)-1H-pyrrolo[2,3-b]pyridine-2-carboxamide]	0.043 µg/mL (≈ 0.12 µM)
Cc1cc(F)c2c(C)c(C(=O)NC3CC[Si]4(CCCCC4)CC3)[nH]c2n1 [MPL-281, 4-fluoro-3,6-dimethyl-N-(6-silaspiro[5.5]undecan-3-yl)-1H-pyrrolo[2,3-b]pyridine-2-carboxamide]	0.0151 µg/mL (≈ 0.0404 µM)
Cc1nc2[nH]c(C(=O)NC3CCC[Si](C)(C)CC3)cc2c(F)c1F (stereo not shown) [MPL-282, N-(1,1-dimethylsilepan-4-yl)-4,5-difluoro-6-methyl-1H-pyrrolo[2,3-b]pyridine-2-carboxamide]	< 0.004 µg/mL
Cc1nc2[nH]c(C(=O)NC3CC[Si]4(CCCC4)CC3)cc2c(F)c1F [MPL-284, 4,5-difluoro-6-methyl-N-(5-silaspiro[4.5]decan-8-yl)-1H-pyrrolo[2,3-b]pyridine-2-carboxamide]	0.026 µg/mL (≈ 0.0715 µM)
Cc1nc2[nH]c(C(=O)NC3CC[Si]4(CCCCC4)CC3)cc2c(F)c1F [MPL-285, 4,5-difluoro-6-methyl-N-(6-silaspiro[5.5]undecan-3-yl)-1H-pyrrolo[2,3-b]pyridine-2-carboxamide]	0.016 µg/mL (≈ 0.0424 µM)

SMILES	MIC
Cc1nc2[nH]c(C(=O)NC3CCCCCCC3)cc2c(F)c1F [MPL-290, N-cyclooctyl-4,5-difluoro-6-methyl-1H-pyrrolo[2,3-b]pyridine-2-carboxamide]	0.005 µg/mL (≈ 0.0156 µM)
Cc1nc2[nH]c(C(=O)NC3CCCC[Si](C)(C)CC3)cc2c(F)c1Cl (stereo not shown) [MPL-292, 5-chloro-N-(1,1-dimethylsilocan-4-yl)-4-fluoro-6-methyl-1H-pyrrolo[2,3-b]pyridine-2-carboxamide]	0.0271 µg/mL (≈ 0.071 µM)
Cc1nc2[nH]c(C(=O)N[C@H]3C[C@H]4C[C@H](C4(C)C)[C@@]3(C)O)cc2c(F)c1F [MPL-294, 4,5-difluoro-N-[(1R,2R,3S,5R)-2-hydroxy-2,6,6-trimethyl-norpinan-3-yl]-6-methyl-1H-pyrrolo[2,3-b]pyridine-2-carboxamide]	> 1 µg/mL
Cc1nc2[nH]c(C(=O)NC3CCC[Si](C)(C)CCC3)cc2c(F)c1F [MPL-301, N-(1,1-dimethylsilocan-5-yl)-4,5-difluoro-6-methyl-1H-pyrrolo[2,3-b]pyridine-2-carboxamide]	0.015 µg/mL (≈ 0.041 µM)
Cc1cc(Cl)c2cc(C(=O)NC3CCC[Si](C)(C)CCC3)[nH]c2n1 [MPL-305]	0.015 µg/mL (≈ 0.0412 µM)
Cc1ncc2[nH]c(C(=O)NC3CC[Si](C)(C)CC3)cc2c1F [MPL-318, N-(1,1-dimethylsilinan-4-yl)-4-fluoro-5-methyl-1H-pyrrolo[2,3-c]pyridine-2-carboxamide]	0.134 µg/mL (≈ 0.419 µM)
Cc1ncc2[nH]c(C(=O)NC3CC[Si]4(CCCC4)CC3)cc2c1F [MPL-319, 4-fluoro-5-methyl-N-(5-silaspiro[4.5]decan-8-yl)-1H-pyrrolo[2,3-c]pyridine-2-carboxamide]	0.499 µg/mL (≈ 1.44 µM)
Cc1ncc2[nH]c(C(=O)NC3CC[Si]4(CCCCC4)CC3)cc2c1F [MPL-320, 4-fluoro-5-methyl-N-(6-silaspiro[5.5]undecan-3-yl)-1H-pyrrolo[2,3-c]pyridine-2-carboxamide]	0.25 µg/mL (≈ 0.695 µM)
C[Si]1(C)CCC(NC(=O)c2cc3cc(C(F)(F)F)ncc3[nH]2)CC1 [MPL-321, N-(1,1-dimethylsilinan-4-yl)-5-(trifluoromethyl)-1H-pyrrolo[2,3-c]pyridine-2-carboxamide]	0.519 µg/mL (≈ 1.46 µM)
C[Si]1(C)CCC(NC(=O)c2cc3c(F)c(C(F)(F)F)ncc3[nH]2)CC1 [MPL-322, N-(1,1-dimethylsilinan-4-yl)-4-fluoro-5-(trifluoromethyl)-1H-pyrrolo[2,3-c]pyridine-2-carboxamide]	0.484 µg/mL (≈ 1.3 µM)
Cc1ncc2[nH]c(C(=O)NC3CC[Si](C)(C)CC3)cc2c1Cl [MPL-328, 4-chloro-N-(1,1-dimethylsilinan-4-yl)-5-methyl-1H-pyrrolo[2,3-c]pyridine-2-carboxamide]	0.061 µg/mL (≈ 0.182 µM)
C[Si]1(C)CCC(NC(=O)c2cc3c(Cl)c(C(F)(F)F)ncc3[nH]2)CC1 [MPL-329, 4-chloro-N-(1,1-dimethylsilinan-4-yl)-5-(trifluoromethyl)-1H-pyrrolo[2,3-c]pyridine-2-carboxamide]	0.491 µg/mL (≈ 1.26 µM)
C[Si]1(C)CCC(NC(=O)c2cc3c(F)c(Cl)ncc3[nH]2)CC1 [MPL-345, 5-chloro-N-(1,1-dimethylsilinan-4-yl)-4-fluoro-1H-pyrrolo[2,3-c]pyridine-2-carboxamide]	0.498 µg/mL (≈ 1.47 µM)
C[Si]1(C)CCCC(NC(=O)c2cc3c(F)c(Cl)ncc3[nH]2)CC1 (stereo not shown) [MPL-346, 5-chloro-N-(1,1-dimethylsilepan-4-yl)-4-fluoro-1H-pyrrolo[2,3-c]pyridine-2-carboxamide]	0.464 µg/mL (≈ 1.31 µM)
O=C(NC1CC[Si]2(CCCCC2)CC1)c1cc2c(F)c(Cl)ncc2[nH]1 [MPL-348, 5-chloro-4-fluoro-N-(6-silaspiro[5.5]undecan-3-yl)-1H-pyrrolo[2,3-c]pyridine-2-carboxamide]	0.435 µg/mL (≈ 1.14 µM)
C[Si]1(C)CCC(NC(=O)c2cc3c(Cl)c(Cl)ncc3[nH]2)CC1 [MPL-349, 4,5-dichloro-N-(1,1-dimethylsilinan-4-yl)-1H-pyrrolo[2,3-c]pyridine-2-carboxamide]	0.068 µg/mL (≈ 0.191 µM)
C[Si]1(C)CCCC(NC(=O)c2cc3c(Cl)c(Cl)ncc3[nH]2)CC1 (stereo not shown) [MPL-350, 4,5-dichloro-N-(1,1-dimethylsilepan-4-yl)-1H-pyrrolo[2,3-c]pyridine-2-carboxamide]	0.247 µg/mL (≈ 0.667 µM)
Cc1ncc2[nH]c(C(=O)NC3CCC[Si](C)(C)CC3)cc2c1F (stereo not shown) [MPL-351, N-(1,1-dimethylsilepan-4-yl)-4-fluoro-5-methyl-1H-pyrrolo[2,3-c]pyridine-2-carboxamide]	0.248 µg/mL (≈ 0.744 µM)
Cc1ncc2[nH]c(C(=O)NC3CC[Si](C)(C)CC3)c(C)c2c1F [MPL-352, N-(1,1-dimethylsilinan-4-yl)-4-fluoro-3,5-dimethyl-1H-pyrrolo[2,3-c]pyridine-2-carboxamide]	0.122 µg/mL (≈ 0.366 µM)
Cc1ncc2[nH]c(C(=O)NC3CCC[Si](C)(C)CC3)c(C)c2c1F (stereo not shown) [MPL-353, N-(1,1-dimethylsilepan-4-yl)-4-fluoro-3,5-dimethyl-1H-pyrrolo[2,3-c]pyridine-2-carboxamide]	0.124 µg/mL (≈ 0.357 µM)
